# From US20160362432A1 (priority 2014, published 2016)
# Target: T1, Human factor D (Homo sapiens, UniProt P00746)
# T1 construct: purified from human serum; purchased Complement Technology, Inc; host or cells: human serum (natural source)
# Assay: biochemical
# T1 sequence (P00746 26-253): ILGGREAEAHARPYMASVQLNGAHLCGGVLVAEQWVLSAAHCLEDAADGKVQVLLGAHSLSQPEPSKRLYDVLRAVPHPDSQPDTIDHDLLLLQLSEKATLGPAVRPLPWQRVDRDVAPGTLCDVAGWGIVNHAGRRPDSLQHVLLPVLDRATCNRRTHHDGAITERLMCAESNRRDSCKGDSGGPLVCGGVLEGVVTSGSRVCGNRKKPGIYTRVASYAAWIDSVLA
structure (smiles),measurement,value
"CCOP(=O)(OCC)c1ccc2c(C(C)=O)cn(CC(=O)N3[C@@H]4CCC[C@@H]4C[C@H]3C(=O)NCc3cccc(Cl)c3F)c2c1 [Compound 5, diethyl 3-acetyl-1-(2-((2S,3aR,6aR)-2-(3-chloro-2-fluorobenzylcarbamoyl)hexahydrocyclopenta [b]pyrrol-1(2H)-yl)-2-oxoethyl)-1H-indol-6-ylphosphonate]",IC50,1 to 10 µM
